Reference: patent US11000033B2, “Ketone or oxime compound, and herbicide” (NISSAN CHEMICAL CORPORATION, priority 2014, dated 2021)

Key:
Format in all cases: in vivo
[1] = system: directly sowed rice plant; assay: Test Example 3: effect on crop by foliage application, Wagner pot (symbol b)
Method in brief: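 Steps: fill a 1/10000-are Wagner pot with alluvial soil; add water and mix to submerge at 0.1–0.5 cm depth; sow rice plus Echinochloa crus-galli var. crus-galli, Leptochloa chinensis and Cyperus difformis; grow in a 25–30 °C greenhouse.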

[2] = system: Digitaria ciliaris; assay: Test Example 4: herbicidal effect by soil treatment (symbol F)
Method in brief: (§1)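 Seeds were sown in sterilized diluvial soil, covered with about 1.5 cm of soil, and the soil surface was sprayed with a water-diluted emulsion of the compound at a predetermined rate. Plants grew in a greenhouse at 25° C. to 30° C.; effects were scored visually 3 weeks after application.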

[3] = system: Echinochloa crus-galli var. crus-galli; assay: Test Example 4: herbicidal effect by soil treatment (symbol H)
Method in brief: as §1

[4] = system: Alopecurus myosuroides; assay: Test Example 4: herbicidal effect by soil treatment (symbol J)
Method in brief: as §1

[5] = system: Lolium multiflorum Lam.; assay: Test Example 4: herbicidal effect by soil treatment (symbol K)
Method in brief: as §1

[6] = system: Stellaria media; assay: Test Example 4: herbicidal effect by soil treatment (symbol P)
Method in brief: as §1

[7] = system: Galium spurium; assay: Test Example 4: herbicidal effect by soil treatment (symbol Q)
Method in brief: as §1

[8] = system: Veronica persica; assay: Test Example 4: herbicidal effect by soil treatment (symbol R)
Method in brief: as §1

[9] = system: corn; assay: Test Example 4: effect on crop by soil treatment (symbol c)
Method in brief: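 The test used sterilized diluvial soil. Seed was set down in spots and overlaid with about 1.5 cm of soil before growth in a greenhouse kept at 25° C. to 30° C.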

[10] = system: soybean; assay: Test Example 4: effect on crop by soil treatment (symbol d)
Method in brief: (§2)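 Greenhouse culture at 25° C. to 30° C. followed sowing of seed in spots on sterilized diluvial soil with a soil cover close to 1.5 cm thick.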

[11] = system: rice; assay: Test Example 4: effect on crop by soil treatment (symbol b)
Method in brief: as §2

[12] = system: beet; assay: Test Example 4: effect on crop by soil treatment (symbol f)
Method in brief: as §2

[13] = system: rapeseed; assay: Test Example 4: effect on crop by soil treatment (symbol g)
Method in brief: as §2

[14] = system: Digitaria ciliaris; assay: Test Example 5: herbicidal effect by foliage application, plastic box (symbol F); conditions: 3 weeks after application
Method in brief: (§3)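 Sowing in sterilized diluvial soil, 14 days' greenhouse growth at 25° C. to 30° C., then uniform small-sprayer foliar application of aqueous emulsion dilution; plants scored three weeks afterwards.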

[15] = system: Setaria viridis; assay: Test Example 5: herbicidal effect by foliage application, plastic box (symbol G); conditions: 3 weeks after application
Method in brief: as §3

[16] = system: Avena fatua; assay: Test Example 5: herbicidal effect by foliage application, plastic box (symbol I); conditions: 3 weeks after application
Method in brief: as §3

[17] = system: Apera spica-venti; assay: Test Example 5: herbicidal effect by foliage application, plastic box (symbol L); conditions: 3 weeks after application
Method in brief: as §3

[18] = system: Abutilon theophrasti; assay: Test Example 5: herbicidal effect by foliage application, plastic box (symbol M); conditions: 3 weeks after application
Method in brief: as §3

[19] = system: Chenopodium album; assay: Test Example 5: herbicidal effect by foliage application, plastic box (symbol O); conditions: 3 weeks after application
Method in brief: as §3

[20] = system: Stellaria media; assay: Test Example 5: herbicidal effect by foliage application, plastic box (symbol P); conditions: 3 weeks after application
Method in brief: as §3

[21] = system: Galium spurium; assay: Test Example 5: herbicidal effect by foliage application, plastic box (symbol Q); conditions: 3 weeks after application
Method in brief: as §3

[22] = system: Veronica persica; assay: Test Example 5: herbicidal effect by foliage application, plastic box (symbol R); conditions: 3 weeks after application
Method in brief: as §3

[23] = system: rice plant; assay: Test Example 5: effect on crop by foliage application, plastic box (symbol b); conditions: 3 weeks after application
Method in brief: (§4)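 In a plastic box 7 cm deep filled with sterilized diluvial soil, seeds of crops and weeds such as Digitaria ciliaris, Avena fatua and Amaranthus retroflexus are sown in spots and covered with about 1.5 cm of soil before greenhouse growth at 25–30° C.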

[24] = system: wheat; assay: Test Example 5: effect on crop by foliage application, plastic box (symbol e); conditions: 3 weeks after application
Method in brief: as §4

[25] = system: beet; assay: Test Example 5: effect on crop by foliage application, plastic box (symbol f); conditions: 3 weeks after application
Method in brief: as §4

CCC(Oc1ccc2ncc(Br)cc2c1)C(=O)OC1=C(c2c(C)cc(C)cc2C)C(=O)C(CC(C)=NOC)C1 (centres unmarked) [1-140]
effect on crop b (directly sowed rice plant), grade 0-5 ([1]; application herbicide amount 320 g/ha): 5 (Herbicidal ratio of 90% or more (almost completely withered))
F: Digitaria ciliaris, herbicidal effect grade ([2]; 320 g/ha): 5 (Herbicidal ratio of 90% or more (almost completely withered))
H: Echinochloa crus-galli var. crus-galli, herbicidal effect grade ([3]; 320 g/ha): 5 (Herbicidal ratio of 90% or more (almost completely withered))
J: Alopecurus myosuroides, herbicidal effect grade ([4]; 320 g/ha): 5 (Herbicidal ratio of 90% or more (almost completely withered))
K: Lolium multiflorum Lam., herbicidal effect grade ([5]; 320 g/ha): 5 (Herbicidal ratio of 90% or more (almost completely withered))
P: Stellaria media, herbicidal effect grade ([6]; 320 g/ha): 0 (Herbicidal ratio of 5% or lower (almost no effect))
Q: Galium spurium, herbicidal effect grade ([7]; 320 g/ha): 0 (Herbicidal ratio of 5% or lower (almost no effect))
R: Veronica persica, herbicidal effect grade ([8]; 320 g/ha): 0 (Herbicidal ratio of 5% or lower (almost no effect))
c: corn, effect grade on crop ([9]; 320 g/ha): 4 (Herbicidal ratio of 70% or higher and lower than 90%)
d: soybean, effect grade on crop ([10]; 320 g/ha): 1 (Herbicidal ratio of 5% or higher and lower than 20%)
b: directly sowed rice plant, effect grade on crop ([11]; 320 g/ha): 5 (Herbicidal ratio of 90% or more (almost completely withered))
f: beet, effect grade on crop ([12]; 320 g/ha): 0 (Herbicidal ratio of 5% or lower (almost no effect))
g: rapeseed, effect grade on crop ([13]; 320 g/ha): 4 (Herbicidal ratio of 70% or higher and lower than 90%)
F: Digitaria ciliaris, herbicidal effect (criteria 0-5) ([14]; 320 g/ha): 5 (Herbicidal ratio of 90% or more (almost completely withered))
G: Setaria viridis, herbicidal effect (criteria 0-5) ([15]; 320 g/ha): 5 (Herbicidal ratio of 90% or more (almost completely withered))
I: Avena fatua, herbicidal effect (criteria 0-5) ([16]; 320 g/ha): 5 (Herbicidal ratio of 90% or more (almost completely withered))
L: Apera spica-venti, herbicidal effect (criteria 0-5) ([17]; 320 g/ha): 5 (Herbicidal ratio of 90% or more (almost completely withered))
M: Abutilon theophrasti, herbicidal effect (criteria 0-5) ([18]; 320 g/ha): 4 (Herbicidal ratio of 70% or higher and lower than 90%)
O: Chenopodium album, herbicidal effect (criteria 0-5) ([19]; 320 g/ha): 2 (Herbicidal ratio of 20% or higher and lower than 40%)
P: Stellaria media, herbicidal effect (criteria 0-5) ([20]; 320 g/ha): 3 (Herbicidal ratio of 40% or higher and lower than 70%)
Q: Galium spurium, herbicidal effect (criteria 0-5) ([21]; 320 g/ha): 2 (Herbicidal ratio of 20% or higher and lower than 40%)
R: Veronica persica, herbicidal effect (criteria 0-5) ([22]; 320 g/ha): 3 (Herbicidal ratio of 40% or higher and lower than 70%)
b: directly sowed rice plant, effect on crop (criteria 0-5) ([23]; 320 g/ha): 5 (Herbicidal ratio of 90% or more (almost completely withered))
e: wheat, effect on crop (criteria 0-5) ([24]; 320 g/ha): 5 (Herbicidal ratio of 90% or more (almost completely withered))
f: beet, effect on crop (criteria 0-5) ([25]; 320 g/ha): 3 (Herbicidal ratio of 40% or higher and lower than 70%)

CC(=O)CC1CC(O)=C(c2c(C)cc(C)cc2C)C1=O (centres unmarked) [2-001, 3-hydroxy-2-mesityl-5-(2-oxopropyl)cyclopent-2-enone]
effect on crop b (directly sowed rice plant), grade 0-5 ([1]; application herbicide amount 102 g/ha): 5 (Herbicidal ratio of 90% or more (almost completely withered))
F: Digitaria ciliaris, herbicidal effect grade ([2]; 102 g/ha): 5 (Herbicidal ratio of 90% or more (almost completely withered))
H: Echinochloa crus-galli var. crus-galli, herbicidal effect grade ([3]; 102 g/ha): 5 (Herbicidal ratio of 90% or more (almost completely withered))
J: Alopecurus myosuroides, herbicidal effect grade ([4]; 102 g/ha): 4 (Herbicidal ratio of 70% or higher and lower than 90%)
K: Lolium multiflorum Lam., herbicidal effect grade ([5]; 102 g/ha): 5 (Herbicidal ratio of 90% or more (almost completely withered))
P: Stellaria media, herbicidal effect grade ([6]; 102 g/ha): 0 (Herbicidal ratio of 5% or lower (almost no effect))
Q: Galium spurium, herbicidal effect grade ([7]; 102 g/ha): 0 (Herbicidal ratio of 5% or lower (almost no effect))
R: Veronica persica, herbicidal effect grade ([8]; 102 g/ha): 0 (Herbicidal ratio of 5% or lower (almost no effect))
c: corn, effect grade on crop ([9]; 102 g/ha): 4 (Herbicidal ratio of 70% or higher and lower than 90%)
d: soybean, effect grade on crop ([10]; 102 g/ha): 0 (Herbicidal ratio of 5% or lower (almost no effect))
b: directly sowed rice plant, effect grade on crop ([11]; 102 g/ha): 5 (Herbicidal ratio of 90% or more (almost completely withered))
f: beet, effect grade on crop ([12]; 102 g/ha): 0 (Herbicidal ratio of 5% or lower (almost no effect))
g: rapeseed, effect grade on crop ([13]; 102 g/ha): 3 (Herbicidal ratio of 40% or higher and lower than 70%)
F: Digitaria ciliaris, herbicidal effect grade ([14]; 102 g/ha): 5 (Herbicidal ratio of 90% or more (almost completely withered))
G: Setaria viridis, herbicidal effect grade ([15]; 102 g/ha): 4 (Herbicidal ratio of 70% or higher and lower than 90%)
I: Avena fatua, herbicidal effect grade ([16]; 102 g/ha): 4 (Herbicidal ratio of 70% or higher and lower than 90%)
L: Apera spica-venti, herbicidal effect grade ([17]; 102 g/ha): 4 (Herbicidal ratio of 70% or higher and lower than 90%)
M: Abutilon theophrasti, herbicidal effect grade ([18]; 102 g/ha): 1 (Herbicidal ratio of 5% or higher and lower than 20%)
O: Chenopodium album, herbicidal effect grade ([19]; 102 g/ha): 3 (Herbicidal ratio of 40% or higher and lower than 70%)
P: Stellaria media, herbicidal effect grade ([20]; 102 g/ha): 3 (Herbicidal ratio of 40% or higher and lower than 70%)
Q: Galium spurium, herbicidal effect grade ([21]; 102 g/ha): 3 (Herbicidal ratio of 40% or higher and lower than 70%)
R: Veronica persica, herbicidal effect grade ([22]; 102 g/ha): 2 (Herbicidal ratio of 20% or higher and lower than 40%)
b: directly sowed rice plant, effect on crop grade ([23]; 102 g/ha): 4 (Herbicidal ratio of 70% or higher and lower than 90%)
e: wheat, effect on crop grade ([24]; 102 g/ha): 0 (Herbicidal ratio of 5% or lower (almost no effect))
f: beet, effect on crop grade ([25]; 102 g/ha): 1 (Herbicidal ratio of 5% or higher and lower than 20%)
